The source of these data is patent US7973047B2, “Beta-Secretase modulators and methods of use” (Amgen Inc., priority 2010, dated 2011).

Chain of BACE (P56817 46-501, species assumed): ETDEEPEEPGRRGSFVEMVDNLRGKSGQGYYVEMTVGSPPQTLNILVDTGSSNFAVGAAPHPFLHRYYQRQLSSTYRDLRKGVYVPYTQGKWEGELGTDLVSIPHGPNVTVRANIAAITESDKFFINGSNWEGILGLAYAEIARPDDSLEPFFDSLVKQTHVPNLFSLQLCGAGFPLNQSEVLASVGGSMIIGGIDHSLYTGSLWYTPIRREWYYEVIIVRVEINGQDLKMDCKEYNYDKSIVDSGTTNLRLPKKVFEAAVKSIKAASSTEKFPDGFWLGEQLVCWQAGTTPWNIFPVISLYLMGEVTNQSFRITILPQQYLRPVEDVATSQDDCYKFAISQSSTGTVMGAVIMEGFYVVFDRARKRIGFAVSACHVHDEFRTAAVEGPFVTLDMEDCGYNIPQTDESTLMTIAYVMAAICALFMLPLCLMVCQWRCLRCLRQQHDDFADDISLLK

One test has as its target BACE (Homo sapiens, UniProt P56817). As to the kind of experiment: In vitro enzymatic BACE FRET (fluorescence resonance energy transfer) assay. It counts as biochemical. Conditions: BACE enzyme 0.2 nM, FRET substrate 50 nM, acetate buffer pH 4.2. The method, then: In Vitro Enzymatic BACE FRET (Fluorescence Resonance Energy Transfer) Assay
Assay buffer is 0.05 M acetate, pH 4.2, 10% DMSO final, 100 uM genapol (which is a nonionic detergent, below it's Critical Micelle Concentration). Enzyme (0.2 nM) is pre-incubated for one hour with inhibitors added in 1 uL of DMSO. Then the assay is started by the addition of FRET substrate (50 nM) and incubated for one hour. The FRET assay is terminated with by addition of Tris buffer, which raises the pH to neutrality, and the fluorescence is determined. The FRET substrate is a peptide with commercially available fluorophore and quencher, on opposite sides of the BACE cleavage site. Proteolytic cleavage of the FRET substrate releases quenching of fluorescence (excitation 488 nm and emission […]).
In turn, `CC(=O)N[C@@H](Cc1ccccc1)[C@H](O)CN[C@H]1CC2(CCC2)Oc2ccc(N3CCOC[C@@H]3C)cc21` [Example 139] had an IC50 not above 5000 nM. The same measure, in the same setting: under `COCC(=O)N[C@@H](Cc1cccc(Cl)c1)[C@H](O)CN[C@H]1CC(C)(C)Oc2ccc(Br)cc21` [Example 180] stands not above 5000 nM.

Take `CC(=O)N[C@@H](Cc1cccc(Cl)c1)[C@H](O)CN[C@H]1CC(C)(C)Oc2ccc(Br)cc21` [Example 182]: the IC50 is not above 5000 nM. Still for that read-out and setting: under `CC(=O)N[C@@H](Cc1ccccc1)[C@H](O)CN[C@H]1CC2(CCC2)Oc2ccc(N3CCCC3)cc21` [Example 264] stands not above 5000 nM; under `CC(=O)N[C@@H](Cc1ccccc1)[C@H](O)CN[C@H]1CC2(CCC2)Oc2ccc(N3C[C@@H]4C[C@H]3CO4)cc21` [Example 388], not above 5000 nM.

The subject of the next test is Aβ40 in conditioned medium of cells stably expressing Amyloid Precursor Protein (APP). As to the kind of experiment: BACE cell-based assay: Aβ40 in conditioned medium by sandwich ELISA. Particulars: cell based assay data of Table 4; unit inferred; read-out: Cell Assay. An outline of the steps: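 Aβ40 in conditioned medium was read by time-resolved fluorescence sandwich ELISA (capture pAb40, detection biotinylated 6E10, 4° C incubations). Compounds were applied for 24 h to cells stably expressing APP, at 10 doses from 100 or 10 μM top, 0.1% DMSO. IC50 derived from percent of control.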
Background: An ELISA detects its analyte on a solid surface through an enzyme-linked reagent.
Take “N-((1S,2R)-3-(((3S,4′S)-6′-(2,2-dimethylpropyl)-3′,4,4′,5-tetrahydrospiro[furan-3,2′-pyrano[2,3-b]pyridin]-4′-yl)amino)-1-((4-fluorophenyl)methyl)-2-hydroxypropyl)acetamide N-((1S,2R)-3-(((3R,4′S)-6′-(2,2-dimethylpropyl)-3′,4,4,5-tetrahydrospiro[furan-3,2′-pyrano[2,3-b]pyridin]-4′-yl)amino)-1-((4-fluorophenyl)methyl)-2-hydroxypropyl)acetamide [compound 658]”: the IC50 was found to be 20.2 nM. On the same count and under the same terms, under “N-((1S,2R)-3-(((4R)-6-(2,2-dimethylpropyl)-2,2-dimethyl-1,2,3,4-tetrahydro-4-quinolinyl)amino)-2-hydroxy-1-(phenylmethyl)propyl)acetamide N-((1S,2R)-3-(((4S)-6-(2,2-dimethylpropyl)-2,2-dimethyl-1,2,3,4-tetrahydro-4-quinolinyl)amino)-2-hydroxy-1-(phenymethyl)propyl)acetamide [compound 689]” stands 72.8 nM; under “N-((1S,2R)-3-(((4′S)-6′-(2,2-dimethylpropyl)-3′,4′-dihydrospiro[cyclopropane-1,2′-pyrano[2,3-b]pyridin]-4′-yl)amino)-1-((4-fluoro-3-methylphenyl)methyl)-2-hydroxypropyl)acetamide [compound 550]”, 20.3 nM.

The same test, now with this note: cell based assay data, Table 4; unit inferred; read-out: Cell Assay.
`CC(=O)N[C@@H](Cc1cc(F)cc(F)c1)[C@H](O)CN[C@H]1CC2(CCC2)Oc2ncc(CC(C)C)cc21` [compound 846]: the IC50 was 1.72 nM. The same measure, in the same setting: under `CC(=O)N[C@@H](Cc1cc(F)cc(Cl)c1)[C@H](O)CN[C@H]1CC2(CCC2)Oc2ncc(CC(C)C)cc21` [compound 847] stands 4.27 nM; under `CC(=O)N[C@@H](Cc1cccc(C(N)=O)c1)[C@H](O)CN[C@H]1CC2(CCC2)Oc2ncc(CC(C)C)cc21` [compound 848], 12.8 nM; under `CC(=O)N[C@@H](Cc1cccc(C#N)c1)[C@H](O)CN[C@H]1CC2(CCC2)Oc2ncc(CC(C)C)cc21` [compound 849], 1.26 nM.

For the compound `CC(=O)N[C@@H](Cc1cccc(F)c1F)[C@H](O)CN[C@H]1CC2(CCC2)Oc2ncc(CC(C)C)cc21` [compound 850], the IC50 stood at 8.68 nM. As to `CC(=O)N[C@@H](Cc1ccc(F)c(F)c1)[C@H](O)CN[C@H]1CC2(CCC2)Oc2ncc(CC(C)C)cc21` [compound 851], the IC50 was 3.24 nM. With `CC(=O)N[C@@H](Cc1ccccc1)[C@H](O)CN[C@H]1CC2(CCC2)Oc2nc(F)c(CC(C)C)cc21` [compound 852], the IC50 is 52 nM. On the same count and under the same terms, under `CC(=O)N[C@@H](Cc1cc(F)cc(F)c1)[C@H](O)CN[C@H]1CC2(CCC2)Oc2nc(F)c(CC(C)C)cc21` [compound 853] stands 11.2 nM; under `CC(=O)N[C@@H](Cc1ccc(F)cc1)[C@H](O)CN[C@H]1CC2(CCC2)Oc2nc(F)c(CC(C)C)cc21` [compound 854], 151 nM; under `CC(=O)N[C@@H](Cc1cccc(F)c1)[C@H](O)CN[C@H]1CC2(CCC2)Oc2nc(F)c(CC(C)C)cc21` [compound 855], 25.2 nM. The same measure, in the same setting: the result for `CC(=O)N[C@@H](Cc1cccc(F)c1F)[C@H](O)CN[C@H]1CC2(CCC2)Oc2nc(F)c(CC(C)C)cc21` [compound 856] reads 206 nM; that for `CC(=O)N[C@@H](Cc1ccc(Cl)c(F)c1)[C@H](O)CN[C@H]1CC2(CCC2)Oc2ncc(CC(C)C)cc21` [compound 857], 26.2 nM; that for `CC(=O)N[C@@H](Cc1ccc(Cl)cc1)[C@H](O)CN[C@H]1CC2(CCC2)Oc2ncc(CC(C)C)cc21` [compound 858], 52.7 nM. The same measure, in the same setting: the result for `CC(=O)N[C@@H](Cc1ccc(F)cc1)[C@H](O)CN[C@H]1CC2(CCC2)Oc2ncc(C(F)C(C)C(F)(F)F)cc21` (stereo partly drawn) [compound 859] reads 148 nM; that for `CC(=O)N[C@@H](Cc1ccc(Cl)cc1)[C@H](O)CN[C@H]1CC2(CCC2)Oc2ncc(C(F)C(C)C(F)(F)F)cc21` (stereo partly drawn) [compound 860], 452 nM; that for `CC(=O)N[C@@H](Cc1cccc(F)c1)[C@H](O)CN[C@H]1CC2(CCC2)Oc2ncc(C(F)C(C)C(F)(F)F)cc21` (stereo partly drawn) [compound 861], 26.4 nM. As for `CC(=O)N[C@@H](Cc1ccccc1)[C@H](O)CN[C@H]1CC2(CCC2)Oc2ncc(C(F)C(C)C(F)(F)F)cc21` (stereo partly drawn) [compound 862], the IC50 came to 74.1 nM. Same read-out and setting: under `CC(=O)N[C@@H](Cc1cccc(F)c1)[C@H](O)CN[C@H]1CC2(CCC2)Oc2ncc(C(O)C(C)C(F)(F)F)cc21` (stereo partly drawn) [compound 863] stands 1830 nM; under `CC(=O)N[C@@H](Cc1ccc(Cl)cc1)[C@H](O)CN[C@H]1CC2(CCC2)Oc2ncc(C(O)C(C)C(F)(F)F)cc21` (stereo partly drawn) [compound 864], not below 10000 nM; under `CC(=O)N[C@@H](Cc1ccccc1)[C@H](O)CN[C@H]1CC2(CCC2)Oc2ncc(C(O)C(C)C(F)(F)F)cc21` (stereo partly drawn) [compound 865], 1930 nM. Still for that read-out and setting: under `CC(=O)N[C@H](Cc1cccc(Cl)c1F)[C@H](O)CN[C@H]1CC2(CCC2)Oc2ncc(CC(C)(C)C)cc21` [compound 866] stands not below 10000 nM. Same read-out and setting: the result for `CC(=O)N[C@@H](Cc1cc(Cl)ccc1F)[C@H](O)CN[C@H]1CC2(CCC2)Oc2ncc(CC(C)(C)C)cc21` [compound 867] reads 2.33 nM.

As to `CC(=O)N[C@@H](Cc1cccc(Cl)c1F)[C@H](O)CN[C@H]1CC2(CCC2)Oc2ncc(CC(C)(C)C)cc21` [compound 868], the IC50 is 6.26 nM. On the same count and under the same terms, the result for `CC(=O)N[C@@H](Cc1cc(F)c(F)c(Cl)c1)[C@H](O)CN[C@H]1CC2(CCC2)Oc2ncc(CC(C)(C)C)cc21` [compound 869] reads 17.9 nM; that for `CC(=O)N[C@@H](Cc1c(F)ccc(F)c1F)[C@H](O)CN[C@H]1CC2(CCC2)Oc2ncc(CC(C)(C)C)cc21` [compound 870], 35.6 nM; that for `CC(=O)N[C@@H](Cc1cc(F)cc(F)c1F)[C@H](O)CN[C@H]1CC2(CCC2)Oc2ncc(CC(C)(C)C)cc21` [compound 871], 2.03 nM. On the same count and under the same terms, the result for `CC(=O)N[C@@H](Cc1ccc(Br)cc1)[C@H](O)CN[C@H]1CC2(CCC2)Oc2ncc(CC(C)(C)C)cc21` [compound 872] reads 34.5 nM; that for `COC(=O)N[C@@H](Cc1ccccc1)[C@H](O)CN[C@H]1CC2(CCC2)Oc2ncc(CC(C)(C)C)cc21` [compound 873], 20.6 nM; that for `CCc1cnc2c(c1)[C@@H](NC[C@@H](O)[C@H](Cc1cc(F)cc(F)c1)NC(C)=O)CC1(CCC1)O2` [compound 874], 12.1 nM. Consider `CCc1cnc2c(c1)[C@@H](NC[C@@H](O)[C@H](Cc1cc(F)cc(F)c1)NC(=O)OC)CC1(CCC1)O2` [compound 875], for which the IC50 came to 325 nM. Consider `COC(=O)N[C@@H](Cc1cc(F)cc(F)c1)[C@H](O)CN[C@H]1CC2(CCC2)Oc2ncc(CC(C)(C)C)cc21` [compound 876], for which the IC50 was determined as 10.8 nM. Same read-out and setting: the result for `CCC(=O)N[C@@H](Cc1ccccc1)[C@H](O)CN[C@H]1CC2(CCC2)Oc2cnc(CC(C)(C)C)cc21` [compound 877] reads 64.1 nM.

As to `CC(=O)N[C@@H](Cc1ccc(F)cc1)[C@H](O)CN[C@H]1CC2(CCC2)Oc2ncc(CC(C)(C)CO)cc21` [compound 878], the IC50 is 236 nM. As to “N-((1S,2R)-3-(((2R,4S)-1′-acetyl-6-ethyl-3,4-dihydrospiro[chromene-2,3′-pyrrolidin]-4-yl)amino)-2-hydroxy-1-(phenylmethyl)propyl)acetamide N-((1S,2R)-3-(((2S,4S)-1′-acetyl-6-ethyl-3,4-dihydrospiro[chromene-2,3′-pyrrolidin]-4-yl)amino)-2-hydroxy-1-(phenylmethyl)propyl)acetamide [compound 812]”, the IC50 stood at 1950 nM.

In the case of “N-((1S,2R)-3-(((4′S)-6′-bromo-3′,4′-dihydrospiro[cyclobutane-1,2′-pyrano[2,3-b]pyridin]-4′-yl)amino)-1-((4-fluorophenyl)methyl)-2-hydroxypropyl)acetamide [compound 843]”, the IC50 came to 503 nM.

The same test, now with this note: cells stably expressing APP, 24 h incubation with compound, Aβ40 in supernatant by sandwich ELISA; read-out: IC50 values in the cell-based assay (inhibition or reduction of Aβ40).
As for `CC(=O)N[C@@H](Cc1ccccc1)[C@H](O)CN[C@H]1CC2(CCC2)Oc2ccc(N3CCOC[C@@H]3C)cc21` [Example 139], the IC50 was not above 5000 nM.

For `CC(=O)N[C@@H](Cc1ccccc1)[C@H](O)CN[C@H]1CC2(CCC2)Oc2ccc(N3C[C@@H]4C[C@H]3CO4)cc21` [Example 388], the IC50 was not above 5000 nM.
